Experimental data: article PMC12371492, “Poly-Arginine Tails and Helical Segments of Natural Antimicrobial Peptides Display Concerted Action at Membranes for Enhanced Antimicrobial Effects” (ACS Bio & Med Chem Au, 2025)
Where two headings read alike, the source gives them in different places. Ends that are not written are not given here.

Experiments:
[1] = system: Staphylococcus epidermidis (S. epidermidis), derived from ATCC 14990; format: cell-based
Method: (§1) Minimum inhibitory concentrations were determined by broth microdilution technique. Two bacterial species were used: Gram-positive bacteria Staphylococcus epidermidis (S. epidermidis), derived from ATCC 14990 and Gram-negative bacteria Escherichia coli (E. coli) MG1655, respectively. S. epidermidis was grown in TSB, and E. coli was grown in MHB. Both were stored at 4 °C on their respective growth medium agar plates. Before the assay, bacteria were grown overnight in 5 mL of growth medium at 37 °C. The grown bacteria were further subcultured in 3 mL of growth medium by diluting to 1% until the O.D. reached 0.4–0.6 within 2.5–3 h. After the bacteria reached the mid log phase, further dilution was made to attain an O.D. of 0.001 to get a final of ∼10^5 CFU/mL in each well of a 96-well plate. An Opentron OT_2 robot pipetting system was used to automatically prepare serial dilutions of peptides and add the bacteria to attain a total volume of 100 μL in each well. The wells containing only medium served as a negative blank. The plate was then incubated for 24 h at 37 °C, and the O.D. of the plate was recorded at 600 nm using a BioTek (Agilent, Santa Clara, CA) microplate reader (Figure S1). The lowest concentration at which no bacterial growth was observed was considered the MIC of the peptide.

[2] = system: Escherichia coli (E. coli) MG1655; format: cell-based
Method: as §1

bacteria = bacteria and source not stated (discussion)
[3] = system: Vibrio cholerae O1 El Tor strain C6706; format: cell-based; conditions: CM9-Hepes pH 7.4, 5 × 10^5 cfu/mL, 20 h at 37 °C shaking, OD 600 nm, triplicate
[4] = Calcein dye leakage assay on LUVs
Method: Calcein leakage assays were done on large unilamellar vesicles (LUVs) following a procedure previously described. , Briefly, a 3:1 POPC/POPG lipid film (containing 4 μmol total of lipids) was prepared in a round-bottom flask using the lipids dissolved in chloroform. The solvent was removed under N2 gas before drying overnight under vacuum. The next day, the lipid cake was hydrated with 300 μL of 80 mmol/L calcein dye (pH 7.4) to generate a suspension that was subjected to 3 freeze–thaw cycles before extrusion through a 0.1 μm polycarbonate filter placed in a mini extruder (Avanti Polar Lipids). Untrapped calcein was separated from the LUVs by chromatography using a Sephadex G-50 column run with HEPES buffer (50 mmol/L, 100 mmol/L NaCl, 0.3 mmol/L EDTA, pH 7.4). A total phosphorus assay was performed to determine the exact lipid concentration of the LUVs. After diluting the vesicles to a final concentration of ∼35 μmol/L, the LUVs were plated in 180 μL wells and exposed to 20 μL of TP4 solutions serially diluted from stock, as needed to generate peptide-to-lipid ratios (P/L) ranging from P/L = 1:2 and 1:1024. Triplicates of each well were run, and at least three independent assays were performed as well. The 96-well plate was incubated at 20 °C with shaking for 40 min. After equilibration at room temperature, the fluorescence was measured using a BioTek SynergyH1 plate reader (BioTek, Winooski, VT) using excitation and emission wavelengths of 490 and 520 nm, respectively. The fractional leakage produced by TP4 was calculated using the equation: %leakage=Ix−I0%/I100%−I0% where I x is the fluorescence intensity in a peptide-containing well, I 100% is the intensity of the positive control (100% leakage obtained with 20 μL of 1% Triton-X detergent), and I 0% is the intensity of the negative control (0% leakage obtained with 20 μL nanopure water). P1 was run in parallel for comparative purposes. The dose–response curves were fitted in GraphPad Prism using a modified version of the Hill equation to extract the EC50 as the P/L where half of the dye has been released. […]

[5] = broth microdilution, TSB, ~10^5 CFU/mL, 24 h at 37 °C, O.D. 600 nm, lowest concentration with no growth
[6] = broth microdilution, MHB, ~10^5 CFU/mL, 24 h at 37 °C, O.D. 600 nm, lowest concentration with no growth

Row | Substance | MIC S. epidermidis [1, 5] | MIC E. coli [2, 6] | MIC values (bacteria) | MIC Vibrio cholerae [3] | other results
1 | QLAQALAAALAALAQGW-NH2 [NP] | >64 µM | >64 µM | – | – | –
2 | FIHHIIGGLFSAGKAIHRLIRRRRR-NH2 [TP4] | – | – | < 1 µM | 1 µM | MIC S. epidermidis ([1]; ATCC 14990, 24 h): 1 µM; MIC E. coli ([2]; MG1655, 24 h): 4 µM
3 | QLAQALAAALAALAQGWRRRRR-NH2 [NP-R5] | 2 µM | 7.5 µM | – | – | –
4 | FFHHIFRGIVHVGKTIHRLVTGRRRRR-NH2 [P1-R5, P1 with the R5 motif added at the C-terminal end] | – | – | – | – | EC50, L/P yielding 50% calcein leakage ([4]; 3:1 POPC/POPG LUVs ~35 μmol/L lipid, HEPES pH 7.4, 40 min at 20 °C, fluorescence 490/520 nm, ± standard error, three assays in triplicate): 97.2 ± 3.4 L/P; calcein leakage ([4]; POPC/POPG liposomes, P/L of 1:10): 100%; factor more active than P1 (EC50 ratio) ([4]; calcein leakage, 3:1 POPC/POPG LUVs): 3.4 fold
5 | FFHHIFRGIVHVGKTIHRLVTG-NH2 [P1, reference compound] | – | – | < 1 µM | 16 µM | –
6 | FIHHIIGGLFSAGKAIHRLI-NH2 [TP4-noR5] | 2 µM | 16 µM | – | – | –
